Assay results as given in patent publication US20250025443A1, “COMPOUNDS AND METHODS FOR TREATING CORONA VIRUSES” (CLEAR CREEK BIO, INC., priority 2021, published 2025).
Like-named read-outs stand apart in the source and are kept apart here.

Molecular target: SARS-CoV-2 Papain-Like Protease (PLpro) (Severe acute respiratory syndrome coronavirus 2 (2019-nCoV) (SARS-CoV-2), UniProt P0DTD1)
Test: biochemical
[1] = SARS-CoV-2 PLpro enzymatic fluorescence assay, read-out: PLpro IC50

SMILES	IC50 [1]	IC50 (PLpro IC50, SARS-CoV-2 PLpro enzymatic fluorescence assay)
Cc1ccc(OC[C@@H]2CCN2)cc1C(=O)NC1(c2cccc3ncccc23)CC1 [Compound 381, (S)-5-(Azetidin-2-ylmethoxy)-2-methyl-N-(1-(quinolin-5-yl)cyclopropyl)benzamide]	< 100 nM	
Cc1ccc(OC[C@H]2CCCN2C)cc1C(=O)NC1(c2cccc3ncccc23)CC1 [Compound 382, (R)-2-Methyl-5-((1-methylpyrrolidin-2-yl)methoxy)-N-(1-(quinolin-5-yl)cyclopropyl)benzamide]	< 100 nM	
Cc1ccc(OC[C@H]2CCN2)cc1C(=O)NC1(c2cccc3ncccc23)CC1 [Compound 383, (R)-5-(Azetidin-2-ylmethoxy)-2-methyl-N-(1-(quinolin-5-yl)cyclopropyl)benzamide]	< 100 nM	
COc1cc(C2(NC(=O)c3cc(OCC4CCN4C)ccc3C)CC2)c2ccccc2c1 (centres unmarked) [Compound 384, N-(1-(3-methoxynaphthalen-1-yl)cyclopropyl)-2-methyl-5-((1-methylazetidin-2-yl)methoxy)benzamide]	< 100 nM	
CNCCOc1ccc(C)c(C(=O)NC2(c3cccc4ncccc34)CC2)c1 [Compound 385, 2-Methyl-5-(2-(methylamino)ethoxy)-N-(1-(quinolin-5-yl)cyclopropyl)benzamide]	< 100 nM	
Cc1ccc(OCC2CCN2C)cc1C(=O)N[C@@H](c1cccc2ccccc12)C(F)(F)F (stereo partly drawn) [Compound 386, 2-Methyl-5-((1-methylazetidin-2-yl)methoxy)-N-((S)-2,2,2-trifluoro-1-(naphthalen-1-yl)ethyl)benzamide]	< 100 nM	
Cc1ccc(OCC2CCN2C)cc1C(=O)NC1(c2cccc3ccccc23)COC1 (centres unmarked) [Compound 387, 2-Methyl-5-((1-methylazetidin-2-yl)methoxy)-N-(3-(naphthalen-1-yl)oxetan-3-yl)benzamide]	< 100 nM	
Cc1ccc(OCCN(C)C)cc1C(=O)NC1(c2cccc3cccnc23)CC1 [Compound 388, 5-(2-(Dimethylamino)ethoxy)-2-methyl-N-(1-(quinolin-8-yl)cyclopropyl)benzamide]	< 100 nM	
Cc1ccc(OC[C@@H]2CCN2C)cc1C(=O)NC1(c2cccc3cc(F)ccc23)CC1 [Compound 389, (S)-N-(1-(6-Fluoronaphthalen-1-yl)cyclopropyl)-2-methyl-5-((1-methylazetidin-2-yl)methoxy)benzamide]	< 100 nM	
Cc1ccc(OC[C@H]2CCN2C)cc1C(=O)NC1(c2cccc3ncccc23)CC1 [Compound 390, (R)-2-Methyl-5-((1-methylazetidin-2-yl)methoxy)-N-(1-(quinolin-5-yl)cyclopropyl)benzamide]	< 100 nM	
Cc1ccc(OC[C@@H]2CCN2C)cc1C(=O)NC1(c2cccc3ncccc23)CC1 [Compound 391, (S)-2-Methyl-5-((1-methylazetidin-2-yl)methoxy)-N-(1-(quinolin-5-yl)cyclopropyl)benzamide]	< 100 nM	
Cc1ccc(OC[C@@H]2CCN2)cc1C(=O)NC1(c2cccc3cc(F)ccc23)CC1 [Compound 392, (S)-5-(Azetidin-2-ylmethoxy)-N-(1-(6-fluoronaphthalen-1-yl)cyclopropyl)-2-methylbenzamide]	< 100 nM	
Cc1ccc(OCCN(C)C)cc1C(=O)NC1(c2cn(-c3ccccc3)c3ccccc23)CC1 [Compound 395, 5-(2-(Dimethylamino)ethoxy)-2-methyl-N-(1-(1-phenyl-1H-indol-3-yl)cyclopropyl)benzamide]	< 100 nM	
Cc1ccc(OCC2CCN2CC(F)(F)F)cc1C(=O)NC1(c2cccc3ccccc23)CC1 (centres unmarked) [Compound 396, 2-Methyl-N-(1-(naphthalen-1-yl)cyclopropyl)-5-((1-(2,2,2-trifluoroethyl)azetidin-2-yl)methoxy)benzamide]	1000 to 5000 nM	
CCCC1COc2cc(C(=O)NC3(c4cccc5ccccc45)CC3)c(C)cc21 (centres unmarked) [Compound 397, 5-Methyl-N-(1-(naphthalen-1-yl)cyclopropyl)-3-propyl-2,3-dihydrobenzofuran-6-carboxamide]	100 to 1000 nM	
Cc1ccc(C2=CCNC2)cc1C(=O)NC1(c2cccc3ccccc23)CC1 [Compound 398, 5-(2,5-Dihydro-1H-pyrrol-3-yl)-2-methyl-N-(1-(naphthalen-1-yl)cyclopropyl)benzamide]	< 100 nM	
Cc1ccc(C2=CCNCC2)cc1C(=O)NC1(c2cccc3ccccc23)CC1 [Compound 399, 2-Methyl-N-(1-(naphthalen-1-yl)cyclopropyl)-5-(1,2,3,6-tetrahydropyridin-4-yl)benzamide]		< 100 nM
COCC(N)COc1ccc(C)c(C(=O)NC2(c3cccc4ccccc34)CC2)c1 (centres unmarked) [Compound 400, 5-(2-Amino-3-methoxypropoxy)-2-methyl-N-(1-(naphthalen-1-yl)cyclopropyl)benzamide]	< 100 nM	
Cc1cc(C2(NC(=O)c3cc(OCCN(C)C)ccc3C)CC2)c2ccccc2c1 [Compound 401, 5-(2-(Dimethylamino)ethoxy)-2-methyl-N-(1-(3-methylnaphthalen-1-yl)cyclopropyl)benzamide]	< 100 nM	
Cc1ccc(OCC2CCN2C)cc1C(=O)NC1(c2cccc3cnccc23)CC1 (centres unmarked) [Compound 402, N-(1-(Isoquinolin-5-yl)cyclopropyl)-2-methyl-5-((1-methylazetidin-2-yl)methoxy)benzamide]	< 100 nM	
Cc1nc2cccc(C3(NC(=O)c4cc(OCCN(C)C)ccc4C)CC3)c2s1 [Compound 403, 5-(2-(Dimethylamino)ethoxy)-2-methyl-N-(1-(2-methylbenzo[d]thiazol-7-yl)cyclopropyl)benzamide]	100 to 1000 nM	
Cc1ccc(OCC2(C)CCN2C)cc1C(=O)NC1(c2cccc3ccccc23)CC1 (centres unmarked) [Compound 404, 5-((1,2-Dimethylazetidin-2-yl)methoxy)-2-methyl-N-(1-(naphthalen-1-yl)cyclopropyl)benzamide]	< 100 nM	
Cc1cc(C)c(C(=O)NC2(c3cccc4ccccc34)CC2)cc1OCCN(C)C [Compound 405, 5-(2-(Dimethylamino)ethoxy)-2,4-dimethyl-N-(1-(naphthalen-1-yl)cyclopropyl)benzamide]	< 100 nM	
Cc1ccc(C2CCNCC2)cc1C(=O)NC1(c2cccc3ccccc23)CC1 [Compound 407, 2-Methyl-N-(1-(naphthalen-1-yl)cyclopropyl)-5-(piperidin-4-yl)benzamide]	< 100 nM	
CCSc1cc(C2(NC(=O)c3cc(OCCN(C)C)ccc3C)CC2)c2ccccc2c1 [Compound 408, 5-(2-(Dimethylamino)ethoxy)-N-(1-(3-(ethylthio)naphthalen-1-yl)cyclopropyl)-2-methylbenzamide]	< 100 nM	
Cc1ccc(OCCN(C)C)cc1C(=O)NC1(c2cncc3ccccc23)CC1 [Compound 409, 5-(2-(Dimethylamino)ethoxy)-N-(1-(isoquinolin-4-yl)cyclopropyl)-2-methylbenzamide]	< 100 nM	
Cc1ccc(N2CCNCC2)cc1C(=O)NC1(c2cccc3ccccc23)CC1 [Compound 410, 2-Methyl-N-(1-(naphthalen-1-yl)cyclopropyl)-5-(piperazin-1-yl)benzamide]	< 100 nM	
Cc1ccc(N2CCCNCC2)cc1C(=O)NC1(c2cccc3ccccc23)CC1 [Compound 411, 5-(1,4-Diazepan-1-yl)-2-methyl-N-(1-(naphthalen-1-yl)cyclopropyl)benzamide]	< 100 nM	
Cc1ccc(NCCN(C)C)cc1C(=O)NC1(c2cccc3ccccc23)CC1 [Compound 412]	< 100 nM	
